In publication PMC4349960, “[^18F]FE@SUPPY: a suitable PET tracer for the adenosine A3 receptor? An in vivo study in rodents” (European Journal of Nuclear Medicine and Molecular Imaging, 2015):
Like-named read-outs stand apart in the source and are kept apart here.

Tests used:
human A1R = tested on: human A1R; parameters: method as in earlier work; conditions: cited from earlier work
human A2AR = tested on: human A2AR; parameters: method as in earlier work; conditions: cited from earlier work
[1] = Ex vivo stability/metabolism in rat plasma and brain after pretreatment; parameters: species or system rats; conditions: rats, after blocking treatment
Method: To determine the influence of the four treatments (vehicle, MRS1523, FE@SUPPY, TQD) on uptake of [^18F]FE@SUPPY, stability was assessed in plasma and brain 60 min after tracer injection. Final blood samples (3 mL) were collected in heparin-buffered tubes, rat brains were washed with ice-cold water and homogenized in 0.9 % aqueous NaCl solution (1 mL) using an IKA T10 basic Ultra-turrax (IKA Laboratory Equipment, Staufen, Germany). […] Sample clean-up was performed by vortexing plasma with the equivalent amount of methanol/acetonitrile (9:1) for 1 min and by subsequent ultracentrifugation (10,000 rpm, 5 min) to remove precipitated proteins. The supernatants obtained were analysed by radio-HPLC (Agilent, Boeblingen, Germany) equipped with a series 1100 autosampler, a series 1200 quaternary pump, a series 1200 diode array detector and a lead-shielded BGO radiodetector. A Chromolith® Performance RP-18e (100 × 4.6 mm, 5 μm) column with a Chromolith® Performance RP-18e (4 x4 mm, 5 μm) precolumn was eluted at a flow rate of 2 mL/min using a mobile phase consisting of 60 % acetonitrile and 40 % water/acetic acid 97.5:2.5 and 32 mM ammonium acetate, pH 3.5. UV detection was performed at a wavelength of 254 nm. The retention time of [^18F]FE@SUPPY was 4.6 – 5.9 min (UV detection and radiodetection).

rat A3R [2] = conditions: cited from earlier work
A3R = target: T1, A3R (Rattus norvegicus, UniProt P28647); test: Small-animal PET in rats: baseline and A3R blocking scans; format: in vivo; conditions: blocker 2 mg/kg i.v. 30 min before tracer; for reduction in brain AUC of [^18F]FE@SUPPY as compared with DMSO administration: 0-60 min
T1 construct: Adult male Sprague-Dawley rats; from tissue; host or cells: living Sprague-Dawley rats, brain volume of interest in PET
T1 sequence (P28647 1-320): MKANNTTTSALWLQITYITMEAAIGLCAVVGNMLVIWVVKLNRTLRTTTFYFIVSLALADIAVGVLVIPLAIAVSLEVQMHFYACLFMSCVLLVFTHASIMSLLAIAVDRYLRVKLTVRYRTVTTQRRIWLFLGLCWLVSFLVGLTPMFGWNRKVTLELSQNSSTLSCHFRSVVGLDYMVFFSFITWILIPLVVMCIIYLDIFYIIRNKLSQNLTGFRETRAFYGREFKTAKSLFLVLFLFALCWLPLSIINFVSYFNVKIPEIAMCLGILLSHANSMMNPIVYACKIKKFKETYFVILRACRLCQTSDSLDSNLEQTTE
Description: A microPET Focus220 scanner (Siemens, Medical Solutions) was used for the experiments. It has 168 detector modules providing a 7.6-cm axial and 22-cm transaxial field of view. The resolution of the reconstructed images (filtered back projection) was 1.3 mm (full-width at half-maximum) in the central field of view and remained under 2 mm within the central 5 cm diameter field of view. For PET imaging two groups of animals (rats and xenografted mice) were investigated. Rats were divided into four groups. The first group received vehicle (dimethyl sulphoxide, DMSO) intravenously via a lateral tail vein 30 min prior to radiotracer administration (three animals, 14.3 – 70.1 MBq, 0.2604 ± 0.06 μg). The second group received MRS1523 – a selective A3R antagonist – at a dose of 2 mg/kg body weight (dissolved in DMSO, 4 mg/mL) intravenously via a tail vein 30 min prior to radiotracer administration (three animals, 18.8 – 59.1 MBq, 0.3443 ± 0.05 μg). The third group received unlabelled title compound FE@SUPPY (dissolved in DMSO, 4 mg/mL) at a dose of 2 mg/kg 30 min before tracer administration (three animals, 9.7 – 16.1 MBq, 0.3926 ± 0.04 μg). In the final study group, the effect of P-glycoprotein inhibition was assessed by intravenous administration of 15 mg/kg TQD (freshly dissolved on each experimental day in 2.5 % aqueous dextrose solution and injected intravenously via a tail vein at a volume of 3 mL/kg over 1 min) 60 min prior to tracer administration (three animals, 13.9 – 26.8 MBq, 0.7451 ± 0.11 μg).
Anaesthetized animals were positioned in the imaging chamber of the microPET scanner, which was kept at 38 °C throughout the experiment. A stereotactic holder attached to the bed, consisting of ear plugs and a tooth bar, was used to fix the animal's head to ensure a reproducible position during the PET studies. [^18F]FE@SUPPY (27.91 ± 13.82 MBq) dissolved in 0.48 ± 0.22 mL phosphate-buffered saline (pH 7.4) was administered as a bolus via a tail vein. Dynamic PET imaging was performed over 60 min in all animals. At the end of the PET scan the animals were killed, a terminal blood sample was collected and whole brains were removed for testing of metabolite stability.
For all PET scans (rats and xenografted mice), list mode data were acquired with an energy window of 350 – 750 keV (rats) or 250 – 750 keV (mice) and a 6-ns timing window. Before each PET scan, a transmission scan using a ^57Co point source was recorded over 10 min. The PET data from the 60-min dynamic scans were sorted into three-dimensional sinograms according to the following frame sequence: 6 × 20 s, 5 × 60 s, 4 × 120 s, 3 × 300 s and 3 × 600 s. For the 90-min scans (in the xenografted mice) the following frame sequence was used: 8 × 5 s, 2 × 10 s, 2 × 30 s, 3 × 60 s, 2 × 150 s, 2 × 300 s, 4 × 600 s and 2 × 900 s. PET images were reconstructed by Fourier rebinning followed by filtered back projection with a ramp filter. The resulting voxel size was 0.6 × 0.6 × 0.8 mm for rats or 0.4 × 0.4 × 0.8 mm for mice. The standard data correction protocol (normalization, attenuation and decay correction) was applied to the data. A calibration factor for converting units of microPET images into absolute radioactivity concentration units was first generated by imaging a phantom filled with a known concentration of [^18F]FDG.
Rat brains were manually outlined on multiple planes of the PET summation images using the image analysis software PMOD 3.1 (Pmod Ltd, Zürich, Switzerland) or Amide. Volumes of interest in the brain or solid tissue mass (xenografts) were transferred to the PET images of the individual time frames and time–activity curves (TACs) expressed in units of kilobecquerels per millilitre were calculated. To facilitate comparison of TACs of different animals, radioactivity concentrations were normalized to dose and weight and expressed as standardized uptake value (SUV, %ID/cm^3 or %ID/g). […]

rat A3R [3] = test: Affinity for rat A3R (literature binding data); conditions: ratio of Ki values
[4] = target: T2, CHO cells expressing the human A3R (CHO-A3) (Homo sapiens, UniProt P0DMS8); test: Xenograft mouse model PET (CHO vs CHO-A3 solid tissue masses); format: in vivo, mice; conditions: xenografted mice, static image 1 h after injection
T2 construct: Karl-Norbert Klotz (University of Würzburg); host or cells: CHO cells stably transfected (CHO-A3), grown as subcutaneous masses in NMRI-nu/nu mice
T2 sequence (P0DMS8 1-318): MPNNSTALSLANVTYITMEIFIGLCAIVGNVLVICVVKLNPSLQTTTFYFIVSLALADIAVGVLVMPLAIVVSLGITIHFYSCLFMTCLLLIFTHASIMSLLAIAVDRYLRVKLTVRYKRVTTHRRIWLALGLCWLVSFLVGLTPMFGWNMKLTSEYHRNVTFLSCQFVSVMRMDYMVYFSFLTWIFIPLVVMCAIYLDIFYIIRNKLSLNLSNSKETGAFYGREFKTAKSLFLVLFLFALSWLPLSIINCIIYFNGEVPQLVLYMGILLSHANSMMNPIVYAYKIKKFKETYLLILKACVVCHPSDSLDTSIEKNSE
Method: Adult male Sprague-Dawley rats (Him:OFA; Animal Research Institute, Himberg, Austria) weighing 307 ± 35 g were kept under controlled environmental conditions (22 ± 1 °C, 40 – 70 % humidity, 12-h light/dark cycle) with free access to standard laboratory animal diet and tap water. Before being used in the experiments, the animals were allowed to adapt to the new conditions for at least a week. Prior to each experiment, the animals were placed in a chamber containing 2.5 % isoflurane in oxygen. When unconscious, the animals were taken from the chamber and kept under anaesthesia with 1.8 % isoflurane administered via a mask during the whole experiment. Pathogen-free, female NMRI-nu/nu mice (Taconic, Denmark) weighing 28.1 ± 0.8 g were housed under sterile conditions. Mice were injected subcutaneously into both upper flanks with 100 μL of a cell suspension in phosphate-buffered saline containing 10^6 CHO cells (right side) or 10^6 CHO-A3 cells (left side). During the imaging periods of 60 or 90 min (rats or xenografted mice, respectively) the isoflurane level was adjusted depending on the depth of anaesthesia. A humidifier was used to moisten the gas mixture before supplying it to the animal.
Around 17 days after cell inoculation, animals in the xenograft group were positioned in the imaging chamber and a dynamic 90-min PET scan was initiated at the start of [^18F]FE@SUPPY injection (2.21 ± 0.75 MBq dissolved in 100 μl physiological saline, pH 7.4; three animals) via a tail vein under isoflurane anaesthesia (2 %). Additionally, in this group, [^18F]FDG PET was performed 1 day prior to the [^18F]FE@SUPPY experiments. […] In brief, mice were deprived of food for 6 – 8 h before [^18F]FDG injection via a tail vein. Mice had access to drinking water at all times. Body warming was achieved by placing the entire cage on a heating pad kept at 38 °C. Warming was started around 30 min before tracer injection and was continued throughout the uptake and imaging period. [^18F]FDG (6.03 ± 1.31 MBq dissolved in 100 μL physiological saline, pH 7.4; three animals) was injected via a tail vein under isoflurane anaesthesia (2 %). Mice were kept under isoflurane anaesthesia throughout the whole uptake and imaging period. A 10-min static image was acquired at 1 h after [^18F]FDG injection. […]
For all PET scans (rats and xenografted mice), list mode data were acquired with an energy window of 350 – 750 keV (rats) or 250 – 750 keV (mice) and a 6-ns timing window. Before each PET scan, a transmission scan using a ^57Co point source was recorded over 10 min. […] A calibration factor for converting units of microPET images into absolute radioactivity concentration units was first generated by imaging a phantom filled with a known concentration of [^18F]FDG. […]

human A3R = target: human A3R; parameters: method as in PMID 10052977; conditions: read-out: Ki, affinity for human A3R; cited from earlier work
[5] = read-out: Ki, affinity for rat A3R

Compound: CCSC(=O)c1c(CC)nc(-c2ccccc2)c(C(=O)OCCF)c1CC [FE@SUPPY]
- affinity for human A1R (human A1R): micromolar range
- affinity for human A2AR (human A2AR): micromolar range
- reduction in plasma concentration of [^18F]FE@SUPPY at 60 min after injection [1]: 27%
- Ki (rat A3R [2]; [5]): 600 nM
- reduction in peak brain activity of [^18F]FE@SUPPY as compared with DMSO administration (A3R): 16.7%
- reduction in brain AUC of [^18F]FE@SUPPY as compared with DMSO administration (A3R): 5.4%

Compound: CCCOC(=O)c1c(-c2ccccc2)nc(CC)c(C(=O)SCC)c1CCC [MRS1523, reference compound]
- fold higher affinity of MRS1523 for rat A3R compared with FE@SUPPY (rat A3R [3]): 5.31 fold
- reduction in plasma concentration of [^18F]FE@SUPPY at 60 min after injection [1]: 36%
- Ki (rat A3R [2]; [5]): 113 nM
- reduction in peak brain activity of [^18F]FE@SUPPY as compared with DMSO administration (A3R): 34.1%
- reduction in brain AUC of [^18F]FE@SUPPY as compared with DMSO administration (A3R): 27.6%

Compound: [^18F]FDG [reference compound]
- uptake in CHO tissue mass [4]: 5.4 %ID/g
- uptake in CHO-A3 tissue mass [4]: 6.3 %ID/g

Compound: CCSC(=O)c1c(CC)nc(-c2ccccc2)c(C(=O)OCCF)c1CC [[^18F]FE@SUPPY, 5-(2-[^18F]fluoroethyl)-2,4-diethyl-3-(ethylsulfanylcarbonyl)-6-phenylpyridine-5-carboxylate]
- Ki (rat A3R [2]; read-out: Ki, affinity towards rat A3R): 600 nM
- Ki (human A3R): 4.2 nM
